Data from ChEMBL document CHEMBL6120962, “New Mitochondria-Targeted Fisetin Derivative Compromises Mitophagy and Limits Survival of Drug-Induced Senescent Breast Cancer Cells” (J Med Chem, 2024).
Active and inactive are the calls of the source. The rule behind the calls is not given here.

What was measured:
HCC1500 [1] = assay: Induction of apoptosis in human HCC1500 cells assessed as decrease in Bcl2 level at 1 to 5 uM incubated for 24 hrs by Western blot analysis; format: functional, cell-based; conditions: dose 1-5 µM
HCC1428 [2] = assay: Induction of senescence in human HCC1428 cells assessed as […] in beta-galactosidase activity at 5 uM incubated for 24 hrs by immunostaining based imaging cytometric analysis; format: functional, cell-based
HCC1428 [3] = assay: Induction of oxidative stress in tamoxifen-induced senescent human HCC1428 cells assessed as increase in mitochondrial superoxide production at 1 to 5 uM incubated for 24 hrs by MitoSOX red superoxide indicator based fluorescence analysis; format: functional, cell-based; conditions: dose 1-5 µM
HCC1428 [4] = assay: Effect on Bcl-rambo protein level in tamoxifen-induced senescent human HCC1428 cells at 1 to 5 uM incubated for 24 hrs by Western blot analysis; format: functional, cell-based; conditions: dose 1-5 µM
HCC1500 [5] = assay: Induction of apoptosis in human HCC1500 cells assessed as phosphatidylserine externalization at 1 to 5 uM incubated for 24 hrs by Annexin V-FITC staining based flow cytometric analysis; format: functional, cell-based; conditions: dose 1-5 µM
[6] = target: RAC-alpha serine/threonine-protein kinase (Homo sapiens) (UniProt P31749); assay: Binding affinity to recombinant human AKT (14 to 276 residues) assessed as interaction by measuring decrease in chemiluminescence signal at 0.01 to 5 uM incubated overnight by dot-blot analysis; conditions: dose 0.01-5 µM
RAC-alpha serine/threonine-protein kinase (Homo sapiens), sequence (P31749 whole entry, the tested form may be a part): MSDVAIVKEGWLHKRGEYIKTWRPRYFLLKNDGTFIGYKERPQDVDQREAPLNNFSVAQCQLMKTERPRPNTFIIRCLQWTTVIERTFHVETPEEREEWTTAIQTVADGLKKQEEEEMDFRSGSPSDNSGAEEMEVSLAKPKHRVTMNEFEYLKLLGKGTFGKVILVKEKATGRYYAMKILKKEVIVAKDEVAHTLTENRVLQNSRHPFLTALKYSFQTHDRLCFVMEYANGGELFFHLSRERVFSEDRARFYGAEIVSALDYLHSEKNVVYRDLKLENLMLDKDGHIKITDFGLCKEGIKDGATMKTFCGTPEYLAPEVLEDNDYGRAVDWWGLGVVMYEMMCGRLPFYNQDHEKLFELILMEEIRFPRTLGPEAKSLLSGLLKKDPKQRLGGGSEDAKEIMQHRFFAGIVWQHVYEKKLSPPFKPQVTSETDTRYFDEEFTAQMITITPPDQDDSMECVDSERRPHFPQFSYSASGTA

[7] = Cytotoxicity against human MCF-10F cells assessed as effect on metabolic activity at 1 to 10 uM incubated for 24 hrs by MTT assay; format: toxicity, cell-based; conditions: dose 1-10 µM
MCF-10F = assay: Induction of apoptosis in tamoxifen-induced senescent human MCF-10F cells assessed as decrease in Bcl2 level at 1 to 5 uM incubated for 24 hrs by Western blot analysis; format: functional, cell-based; conditions: dose 1-5 µM
HCC1428 [8] = assay: Induction of apoptosis in tamoxifen-induced senescent human HCC1428 cells assessed as decrease in phosphorylated AKT level at 1 to 5 uM incubated for 24 hrs by Western blotting analysis; format: functional, cell-based; conditions: dose 1-5 µM
HCC1428 [9] = assay: Induction of apoptosis in tamoxifen-induced senescent human HCC1428 cells assessed as increase in caspase 9 level incubated for 24 hrs by immunostaining based imaging cytometric analysis; format: functional, cell-based
HCC1428 [10] = assay: Induction of autophagosome formation in tamoxifen-induced senescent human HCC1428 cells assessed as increase in ubiquitin level at 1 to 5 uM by immunostaining based imaging cytometric analysis; format: functional, cell-based; conditions: dose 1-5 µM
Mitochondrial membrane = assay: Induction of mitochondrial membrane potential depolarization in tamoxifen-induced senescent human HCC1428 cells assessed as increase in depolarized dead cell level at 1 to 5 uM incubated for 24 hrs by 7-AAD staining based flow cytometric analysis; format: cell membranes; conditions: dose 1-5 µM

CC(=O)Oc1ccc2c(=O)c(OCCCC[P+](c3ccccc3)(c3ccccc3)c3ccccc3)c(-c3ccc4c(c3)OC(c3ccccc3)(c3ccccc3)O4)oc2c1.[I-]
Activity (HCC1500 [1]): Active | Activity (HCC1428 [2]): Active; Most Pronounced Effect Observed | Activity (HCC1428 [3]): Active | Activity (HCC1428 [4]): inactive | Activity (HCC1500 [5]): Active | Activity [6]: Active | Activity [7]: Non-toxic | Activity (MCF-10F): inactive | Activity (HCC1428 [8]): Active | Activity (HCC1428 [9]): Active | Activity (HCC1428 [10]): inactive | Activity (Mitochondrial membrane): Active
